Measured values from patent publication US11464782B2, “Method of treating pain or interstitial cystitis using indole compound” (Japan Tobacco Inc., priority 2018, dated 2022).
Like-named read-outs stand apart in the source and are kept apart here.

Columns and labels:
Format in all cases: in vivo
[1] = Trough plasma concentrations of Compound A in the human clinical study; conditions: for concentration at 2 week / concentration at 4 week / concentration at 8 week / concentration at 12 week: human, plasma, oral, human plasma
Protocol: (§1) Compound A was evaluated in a multicenter, randomized, double-blind, placebo-controlled, parallel-group study in subjects with active rheumatoid arthritis. Subjects were randomized to receive orally placebo or an amount of monohydrochloride Compound A sufficient to provide 50 mg, 100 mg, 150 mg, or 200 mg of free form, once daily for 12 weeks.
In the human clinical study described in Example 3, blood samples were collected from subjects prior to dosing at weeks 2, 4, 8, and 12 for the quantification of plasma Compound A levels.

[2] = system: CYP-induced cystitis model mice; assay: Mouse cyclophosphamide (CYP)-induced cystitis model, lower abdominal licking time; conditions: 3, 6 or 10 mg/mL solutions at 10 mL/kg oral once per day Days 7-9
Protocol: The inhibitory effect of Compound A on lower abdominal licking time was evaluated in a mouse CYP-induced cystitis model. The evaluation was performed according to M. Fujita et al., Eur J Pain. 20 (2016) 79-91. Male C57BL/6J mice (Charles River Laboratories Japan, Inc.) were used as the experimental animals.
Once per day for four days (Days 1-4) 20 mg/mL of CYP (Sigma) dissolved in saline solution was intraperitoneally administered to a vehicle group, a Compound A administration group, and an anti-NGF antibody group at a volume of 10 mL/kg, and saline solution was intraperitoneally administered to a sham group at a volume of 10 mL/kg. A monohydrochloride of Compound A was dissolved in 0.5% methyl cellulose (MC) to prepare 3 mg/mL, 6 mg/mL, and 10 mg/mL solutions of Compound A. […]
The behavior of the mice was recorded for 90 minutes using a video camera prior to the initial administration of CYP (Pre) and on Day 7, Day 8, and Day 10, and the lower abdominal licking time (seconds) was measured. […] The mean values of the licking times of the individual animals were calculated for each group, and the results are shown in FIG. 11.

[3] = system: subjects with active rheumatoid arthritis; assay: Adverse events in rheumatoid arthritis human clinical trial
Protocol: as §1
The incidence of serious adverse events (SAEs) and severe treatment-emergent adverse events (TEAEs) in the clinical study was low (3.4% and 2.9%, respectively) in subjects who received treatment with one of the doses of Compound A in the clinical study.

[4] = subjects who received one of the doses (50-200 mg once daily, 12 weeks)

In the case of `C[C@@H](C(=O)N(C)c1ccc2cc(-c3n[nH]c4c3CCC(C)(C)C4)[nH]c2c1)N1CCOCC1` [Compound A, N-[2-(6,6-dimethyl-4,5,6,7-tetrahydro-1H-indazol-3-yl)-1H-indol-6-yl]-N-methyl-(2S)-2-(morpholin-4-yl)propanamide], the “Trough concentration, mean ratio relative to Compound A 50 mg QD at the same visit” value ([1]; 50 mg QD, 2 week) is reported as 1.00, the “Trough concentration, mean ratio relative to Compound A 50 mg QD at the same visit” value ([1]; 50 mg QD, 4 week) is reported as 1.00 and the “Trough concentration, mean ratio relative to Compound A 50 mg QD at the same visit” value ([1]; 50 mg QD, 8 week) is reported as 1.00. For the same molecule, the “Trough concentration, mean ratio relative to Compound A 50 mg QD at the same visit” value ([1]; 50 mg QD, 12 week) was 1.00, the “dose dependence and maintenance of mean trough concentrations” value ([1]; 50 mg to 200 mg once daily, weeks 2-12) was “Mean trough concentrations increased as dose increased from 50 mg to 200 mg and trough concentrations were maintained throughout the study” and the “Trough concentration, mean ratio relative to Compound A 50 mg QD at the same visit” value ([1]; 100 mg QD, 2 week) was 1.52. For the same molecule, the “Trough concentration, mean ratio relative to Compound A 50 mg QD at the same visit” value ([1]; 100 mg QD, 4 week) was 1.60, the “Trough concentration, mean ratio relative to Compound A 50 mg QD at the same visit” value ([1]; 100 mg QD, 8 week) was 1.77 and the “Trough concentration, mean ratio relative to Compound A 50 mg QD at the same visit” value ([1]; 100 mg QD, 12 week) was 1.50. For the same molecule, the “Trough concentration, mean ratio relative to Compound A 50 mg QD at the same visit” value ([1]; 150 mg QD, 2 week) was 2.51, the “Trough concentration, mean ratio relative to Compound A 50 mg QD at the same visit” value ([1]; 150 mg QD, 4 week) was 2.28 and the “Trough concentration, mean ratio relative to Compound A 50 mg QD at the same visit” value ([1]; 150 mg QD, 8 week) was 2.10. The “Trough concentration, mean ratio relative to Compound A 50 mg QD at the same visit” value ([1]; 150 mg QD, 12 week) was 2.63, the “Trough concentration, mean ratio relative to Compound A 50 mg QD at the same visit” value ([1]; 200 mg QD, 2 week) was 3.89 and the “Trough concentration, mean ratio relative to Compound A 50 mg QD at the same visit” value ([1]; 200 mg QD, 4 week) was 3.33. The “Trough concentration, mean ratio relative to Compound A 50 mg QD at the same visit” value ([1]; 200 mg QD, 8 week) was 3.11, the “Trough concentration, mean ratio relative to Compound A 50 mg QD at the same visit” value ([1]; 200 mg QD, 12 week) was 2.98 and the concentration at 2 week ([1]; 50 mg, 50 mg QD, 2 week, BLQ (<2.00 ng/mL) set to 0, read-out: Trough Plasma Concentrations, Min-Max) was 0 to 387 ng/mL. For the same molecule, the concentration at 2 week ([1]; 50 mg, 50 mg QD, 2 week, read-out: Trough Plasma Concentrations, Mean (SD)) was 134 ng/mL, the concentration at 2 week ([1]; 50 mg, 50 mg QD, 2 week, read-out: Trough Plasma Concentrations, Median) was 118 ng/mL and the concentration at 4 week ([1]; 50 mg, 50 mg QD, 4 week, BLQ (<2.00 ng/mL) set to 0, read-out: Trough Plasma Concentrations, Min-Max) was 0 to 356 ng/mL. The concentration at 4 week ([1]; 50 mg, 50 mg QD, 4 week, read-out: Trough Plasma Concentrations, Mean (SD)) was 135 ng/mL, the concentration at 4 week ([1]; 50 mg, 50 mg QD, 4 week, read-out: Trough Plasma Concentrations, Median) was 119 ng/mL and the concentration at 8 week ([1]; 50 mg, 50 mg QD, 8 week, BLQ (<2.00 ng/mL) set to 0, read-out: Trough Plasma Concentrations, Min-Max) was 0 to 436 ng/mL. The concentration at 8 week ([1]; 50 mg, 50 mg QD, 8 week, read-out: Trough Plasma Concentrations, Mean (SD)) was 129 ng/mL, the concentration at 8 week ([1]; 50 mg, 50 mg QD, 8 week, read-out: Trough Plasma Concentrations, Median) was 108 ng/mL and the concentration at 12 week ([1]; 50 mg, 50 mg QD, 12 week, BLQ (<2.00 ng/mL) set to 0, read-out: Trough Plasma Concentrations, Min-Max) was 0 to 531 ng/mL. It also gave a concentration at 12 week ([1]; 50 mg, 50 mg QD, 12 week, read-out: Trough Plasma Concentrations, Mean (SD)) of 119 ng/mL, a concentration at 12 week ([1]; 50 mg, 50 mg QD, 12 week, read-out: Trough Plasma Concentrations, Median) of 100 ng/mL and a concentration at 2 week ([1]; 100 mg, 100 mg QD, 2 week, BLQ (<2.00 ng/mL) set to 0, read-out: Trough Plasma Concentrations, Min-Max) of 0 to 825 ng/mL. For the same molecule, the concentration at 2 week ([1]; 100 mg, 100 mg QD, 2 week, read-out: Trough Plasma Concentrations, Mean (SD)) was 204 ng/mL, the concentration at 2 week ([1]; 100 mg, 100 mg QD, 2 week, read-out: Trough Plasma Concentrations, Median) was 191 ng/mL and the concentration at 4 week ([1]; 100 mg, 100 mg QD, 4 week, BLQ (<2.00 ng/mL) set to 0, read-out: Trough Plasma Concentrations, Min-Max) was 0 to 650 ng/mL. For the same molecule, the concentration at 4 week ([1]; 100 mg, 100 mg QD, 4 week, read-out: Trough Plasma Concentrations, Mean (SD)) was 216 ng/mL, the concentration at 4 week ([1]; 100 mg, 100 mg QD, 4 week, read-out: Trough Plasma Concentrations, Median) was 215 ng/mL and the concentration at 8 week ([1]; 100 mg, 100 mg QD, 8 week, BLQ (<2.00 ng/mL) set to 0, read-out: Trough Plasma Concentrations, Min-Max) was 0 to 785 ng/mL. It also gave a concentration at 8 week ([1]; 100 mg, 100 mg QD, 8 week, read-out: Trough Plasma Concentrations, Mean (SD)) of 228 ng/mL, a concentration at 8 week ([1]; 100 mg, 100 mg QD, 8 week, read-out: Trough Plasma Concentrations, Median) of 194 ng/mL and a concentration at 12 week ([1]; 100 mg, 100 mg QD, 12 week, BLQ (<2.00 ng/mL) set to 0, read-out: Trough Plasma Concentrations, Min-Max) of 0 to 728 ng/mL. It also gave a concentration at 12 week ([1]; 100 mg, 100 mg QD, 12 week, read-out: Trough Plasma Concentrations, Mean (SD)) of 178 ng/mL, a concentration at 12 week ([1]; 100 mg, 100 mg QD, 12 week, read-out: Trough Plasma Concentrations, Median) of 175 ng/mL and a concentration at 2 week ([1]; 150 mg, 150 mg QD, 2 week, BLQ (<2.00 ng/mL) set to 0, read-out: Trough Plasma Concentrations, Min-Max) of 1.47 to 1110 ng/mL. The concentration at 2 week ([1]; 150 mg, 150 mg QD, 2 week, read-out: Trough Plasma Concentrations, Mean (SD)) was 335 ng/mL, the concentration at 2 week ([1]; 150 mg, 150 mg QD, 2 week, read-out: Trough Plasma Concentrations, Median) was 300 ng/mL and the concentration at 4 week ([1]; 150 mg, 150 mg QD, 4 week, BLQ (<2.00 ng/mL) set to 0, read-out: Trough Plasma Concentrations, Min-Max) was 0 to 748 ng/mL. The concentration at 4 week ([1]; 150 mg, 150 mg QD, 4 week, read-out: Trough Plasma Concentrations, Mean (SD)) was 309 ng/mL, the concentration at 4 week ([1]; 150 mg, 150 mg QD, 4 week, read-out: Trough Plasma Concentrations, Median) was 277 ng/mL and the concentration at 8 week ([1]; 150 mg, 150 mg QD, 8 week, BLQ (<2.00 ng/mL) set to 0, read-out: Trough Plasma Concentrations, Min-Max) was 0 to 743 ng/mL. It also gave a concentration at 8 week ([1]; 150 mg, 150 mg QD, 8 week, read-out: Trough Plasma Concentrations, Mean (SD)) of 272 ng/mL, a concentration at 8 week ([1]; 150 mg, 150 mg QD, 8 week, read-out: Trough Plasma Concentrations, Median) of 277 ng/mL and a concentration at 12 week ([1]; 150 mg, 150 mg QD, 12 week, BLQ (<2.00 ng/mL) set to 0, read-out: Trough Plasma Concentrations, Min-Max) of 0 to 992 ng/mL. For the same molecule, the concentration at 12 week ([1]; 150 mg, 150 mg QD, 12 week, read-out: Trough Plasma Concentrations, Mean (SD)) was 312 ng/mL, the concentration at 12 week ([1]; 150 mg, 150 mg QD, 12 week, read-out: Trough Plasma Concentrations, Median) was 246 ng/mL and the concentration at 2 week ([1]; 200 mg, 200 mg QD, 2 week, BLQ (<2.00 ng/mL) set to 0, read-out: Trough Plasma Concentrations, Min-Max) was 5.01 to 2210 ng/mL. For the same molecule, the concentration at 2 week ([1]; 200 mg, 200 mg QD, 2 week, read-out: Trough Plasma Concentrations, Mean (SD)) was 521 ng/mL, the concentration at 2 week ([1]; 200 mg, 200 mg QD, 2 week, read-out: Trough Plasma Concentrations, Median) was 436 ng/mL and the concentration at 4 week ([1]; 200 mg, 200 mg QD, 4 week, BLQ (<2.00 ng/mL) set to 0, read-out: Trough Plasma Concentrations, Min-Max) was 0 to 1570 ng/mL. For the same molecule, the concentration at 4 week ([1]; 200 mg, 200 mg QD, 4 week, read-out: Trough Plasma Concentrations, Mean (SD)) was 450 ng/mL, the concentration at 4 week ([1]; 200 mg, 200 mg QD, 4 week, read-out: Trough Plasma Concentrations, Median) was 402 ng/mL and the concentration at 8 week ([1]; 200 mg, 200 mg QD, 8 week, BLQ (<2.00 ng/mL) set to 0, read-out: Trough Plasma Concentrations, Min-Max) was 0 to 1660 ng/mL. It also gave a concentration at 8 week ([1]; 200 mg, 200 mg QD, 8 week, read-out: Trough Plasma Concentrations, Mean (SD)) of 402 ng/mL, a concentration at 8 week ([1]; 200 mg, 200 mg QD, 8 week, read-out: Trough Plasma Concentrations, Median) of 392 ng/mL and a concentration at 12 week ([1]; 200 mg, 200 mg QD, 12 week, BLQ (<2.00 ng/mL) set to 0, read-out: Trough Plasma Concentrations, Min-Max) of 0 to 1170 ng/mL. The concentration at 12 week ([1]; 200 mg, 200 mg QD, 12 week, read-out: Trough Plasma Concentrations, Mean (SD)) was 354 ng/mL, the concentration at 12 week ([1]; 200 mg, 200 mg QD, 12 week, read-out: Trough Plasma Concentrations, Median) was 323 ng/mL and the “lower abdominal licking time” value [2] was “reduced lower abdominal licking time”. For the same molecule, the safety and tolerability ([3]; doses up to 200 mg over 12 weeks of treatment) was “safe and tolerated”, the “incidence of serious adverse events (SAEs)” value [3, 4] was 3.4% and the “incidence of severe treatment-emergent adverse events (TEAEs)” value [3, 4] was 2.9%.
